Measured values as given in publication PMC9927415, “Tyrosine Kinase Inhibitors Display Potent Activity against Cryptosporidium parvum” (Microbiology Spectrum, 2022).

Tests used:
panel of 203 kinases [1] = target: T1, panel of 203 kinases (Homo sapiens, UniProt P53671); experiment: KINOMEscan competitive binding, whole panel; settings: 10 µM, n=1; kinase LIMK2; read-out: Percent inhibition LIMK2
T1 construct: purchased DiscoverX (KINOMEscan)
Source text: (§1) The kinases were expressed as fusions to T7 bacteriophage. This is a sensitive, competitive binding assay where test compounds were used to displace immobilized ATP-site binding probe ligands from kinases of interest. The amount of kinase that remained bound to the immobilized probe ligands on the solid support was quantified. Percentage inhibition data were was plotted on kinome trees using the web-based tool KinMap (http://www.kinhub.org/kinmap) ([60]).

panel of 203 kinases [2] = target: T2, panel of 203 kinases (Homo sapiens, UniProt O43293); experiment: KINOMEscan competitive binding, whole panel; settings: 10 µM, n=1; kinase DAPK3; read-out: Percent inhibition DAPK3
T2 construct: purchased DiscoverX (KINOMEscan)
Source text: as §1

panel of 203 kinases [3] = target: T3, panel of 203 kinases (Homo sapiens, UniProt P53778); experiment: KINOMEscan competitive binding, whole panel; settings: 10 µM, n=1; kinase p38-gamma; read-out: Percent inhibition p38-gamma
T3 construct: purchased DiscoverX (KINOMEscan)
T3 sequence (P53778 1-367): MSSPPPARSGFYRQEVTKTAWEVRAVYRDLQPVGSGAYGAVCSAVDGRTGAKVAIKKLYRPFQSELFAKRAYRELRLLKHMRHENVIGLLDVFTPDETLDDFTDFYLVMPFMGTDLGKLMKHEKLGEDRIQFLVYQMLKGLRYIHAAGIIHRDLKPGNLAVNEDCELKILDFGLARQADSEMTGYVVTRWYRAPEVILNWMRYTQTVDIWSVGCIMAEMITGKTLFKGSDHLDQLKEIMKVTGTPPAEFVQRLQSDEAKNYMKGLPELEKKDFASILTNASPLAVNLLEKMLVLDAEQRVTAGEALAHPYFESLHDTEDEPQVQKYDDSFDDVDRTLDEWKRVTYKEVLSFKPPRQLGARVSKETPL
Source text: as §1

panel of 203 kinases [4] = target: T4, panel of 203 kinases (Homo sapiens, UniProt Q8NI60); experiment: KINOMEscan competitive binding, whole panel; settings: 10 µM, n=1; kinase ADCK3; read-out: Percent inhibition ADCK3
T4 construct: purchased DiscoverX (KINOMEscan)
Source text: as §1

TYRO3 = target: T5, TYRO3 (Homo sapiens, UniProt Q06418); experiment: KINOMEscan competitive binding; settings: n=1, read-out: Percent inhibition, TYRO3
T5 construct: purchased DiscoverX (KINOMEscan)
T5 sequence (Q06418 41-890): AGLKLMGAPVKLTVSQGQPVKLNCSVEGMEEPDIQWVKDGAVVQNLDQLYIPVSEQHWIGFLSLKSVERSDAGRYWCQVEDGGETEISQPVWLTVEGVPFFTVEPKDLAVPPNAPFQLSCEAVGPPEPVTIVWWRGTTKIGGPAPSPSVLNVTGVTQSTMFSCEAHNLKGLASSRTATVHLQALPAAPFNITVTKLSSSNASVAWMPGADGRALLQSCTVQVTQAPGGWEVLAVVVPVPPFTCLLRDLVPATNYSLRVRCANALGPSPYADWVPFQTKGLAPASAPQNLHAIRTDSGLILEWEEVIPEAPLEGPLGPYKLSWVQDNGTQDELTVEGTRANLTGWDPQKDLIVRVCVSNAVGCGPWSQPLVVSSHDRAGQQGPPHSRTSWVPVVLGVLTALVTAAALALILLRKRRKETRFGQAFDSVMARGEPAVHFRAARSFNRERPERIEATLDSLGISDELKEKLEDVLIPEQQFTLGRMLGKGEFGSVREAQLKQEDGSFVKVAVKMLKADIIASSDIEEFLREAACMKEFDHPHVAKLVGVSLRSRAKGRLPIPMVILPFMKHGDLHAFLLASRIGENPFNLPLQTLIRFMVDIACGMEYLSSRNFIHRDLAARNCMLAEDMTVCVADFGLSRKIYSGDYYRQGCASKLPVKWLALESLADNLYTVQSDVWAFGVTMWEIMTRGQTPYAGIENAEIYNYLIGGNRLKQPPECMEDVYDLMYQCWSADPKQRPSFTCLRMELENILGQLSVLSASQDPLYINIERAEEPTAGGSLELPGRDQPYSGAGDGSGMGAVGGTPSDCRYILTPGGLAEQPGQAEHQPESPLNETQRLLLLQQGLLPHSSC

STK33 = target: T6, STK33 (Homo sapiens, UniProt Q9BYT3); experiment: KINOMEscan competitive binding; settings: n=1, read-out: Percent inhibition, STK33
T6 construct: purchased DiscoverX (KINOMEscan)

ROS1 = target: T7, ROS1 (Homo sapiens, UniProt P08922); experiment: KINOMEscan competitive binding; settings: n=1, read-out: Percent inhibition, ROS1
T7 construct: purchased DiscoverX (KINOMEscan)

PKMYT1 = target: T8, PKMYT1 (Homo sapiens, UniProt Q99640); experiment: KINOMEscan competitive binding; settings: n=1, read-out: Percent inhibition, PKMYT1
T8 construct: purchased DiscoverX (KINOMEscan)
T8 sequence (Q99640 1-499): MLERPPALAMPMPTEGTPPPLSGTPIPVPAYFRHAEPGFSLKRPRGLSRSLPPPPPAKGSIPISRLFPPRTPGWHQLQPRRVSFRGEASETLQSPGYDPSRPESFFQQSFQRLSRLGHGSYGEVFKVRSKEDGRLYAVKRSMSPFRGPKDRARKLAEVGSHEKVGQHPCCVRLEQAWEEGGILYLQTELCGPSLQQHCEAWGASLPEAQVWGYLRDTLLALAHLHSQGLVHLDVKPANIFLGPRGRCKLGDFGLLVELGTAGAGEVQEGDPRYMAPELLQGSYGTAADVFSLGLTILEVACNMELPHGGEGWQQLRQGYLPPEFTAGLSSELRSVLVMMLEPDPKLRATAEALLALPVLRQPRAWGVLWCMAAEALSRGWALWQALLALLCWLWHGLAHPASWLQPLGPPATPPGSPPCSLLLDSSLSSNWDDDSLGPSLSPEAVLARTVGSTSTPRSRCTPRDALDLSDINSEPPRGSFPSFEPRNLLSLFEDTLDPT

[5] = Host cell cytotoxicity assay (CellTiter-Glo); settings: human, HepG2 cells
Experimental: HepG2 cells were grown in Eagle’s Minimum Essential Medium (MEM) containing 10% FBS, 1% nonessential amino acids (NEAA) and 1% penicillin/streptomycin to >50% confluence prior to harvesting. Cells were suspended in media and 3000 cells per well were added onto 384-well clear bottom plates. Prior to addition of the cell suspension, the screening compounds (250 nl) were predispensed into plates using a liquid handler. Plates were incubated for 48 h at 37°C, 5% CO2. After 48 h of incubation, plates were equilibrated at room temperature for 30 min before luminescence signal was measured using CellTiter-Glo Reagent. Plates were kept at room temperature for 10 min to stabilize the signal and then read using a ViewLux luminescence reader. The HepG2 CC50 (from the host cell cytotoxicity assays) and C. parvum mean EC50 (from parasite growth inhibition assays) values were used to calculate selectivity index.

T7 sequence (P08922 28-2347): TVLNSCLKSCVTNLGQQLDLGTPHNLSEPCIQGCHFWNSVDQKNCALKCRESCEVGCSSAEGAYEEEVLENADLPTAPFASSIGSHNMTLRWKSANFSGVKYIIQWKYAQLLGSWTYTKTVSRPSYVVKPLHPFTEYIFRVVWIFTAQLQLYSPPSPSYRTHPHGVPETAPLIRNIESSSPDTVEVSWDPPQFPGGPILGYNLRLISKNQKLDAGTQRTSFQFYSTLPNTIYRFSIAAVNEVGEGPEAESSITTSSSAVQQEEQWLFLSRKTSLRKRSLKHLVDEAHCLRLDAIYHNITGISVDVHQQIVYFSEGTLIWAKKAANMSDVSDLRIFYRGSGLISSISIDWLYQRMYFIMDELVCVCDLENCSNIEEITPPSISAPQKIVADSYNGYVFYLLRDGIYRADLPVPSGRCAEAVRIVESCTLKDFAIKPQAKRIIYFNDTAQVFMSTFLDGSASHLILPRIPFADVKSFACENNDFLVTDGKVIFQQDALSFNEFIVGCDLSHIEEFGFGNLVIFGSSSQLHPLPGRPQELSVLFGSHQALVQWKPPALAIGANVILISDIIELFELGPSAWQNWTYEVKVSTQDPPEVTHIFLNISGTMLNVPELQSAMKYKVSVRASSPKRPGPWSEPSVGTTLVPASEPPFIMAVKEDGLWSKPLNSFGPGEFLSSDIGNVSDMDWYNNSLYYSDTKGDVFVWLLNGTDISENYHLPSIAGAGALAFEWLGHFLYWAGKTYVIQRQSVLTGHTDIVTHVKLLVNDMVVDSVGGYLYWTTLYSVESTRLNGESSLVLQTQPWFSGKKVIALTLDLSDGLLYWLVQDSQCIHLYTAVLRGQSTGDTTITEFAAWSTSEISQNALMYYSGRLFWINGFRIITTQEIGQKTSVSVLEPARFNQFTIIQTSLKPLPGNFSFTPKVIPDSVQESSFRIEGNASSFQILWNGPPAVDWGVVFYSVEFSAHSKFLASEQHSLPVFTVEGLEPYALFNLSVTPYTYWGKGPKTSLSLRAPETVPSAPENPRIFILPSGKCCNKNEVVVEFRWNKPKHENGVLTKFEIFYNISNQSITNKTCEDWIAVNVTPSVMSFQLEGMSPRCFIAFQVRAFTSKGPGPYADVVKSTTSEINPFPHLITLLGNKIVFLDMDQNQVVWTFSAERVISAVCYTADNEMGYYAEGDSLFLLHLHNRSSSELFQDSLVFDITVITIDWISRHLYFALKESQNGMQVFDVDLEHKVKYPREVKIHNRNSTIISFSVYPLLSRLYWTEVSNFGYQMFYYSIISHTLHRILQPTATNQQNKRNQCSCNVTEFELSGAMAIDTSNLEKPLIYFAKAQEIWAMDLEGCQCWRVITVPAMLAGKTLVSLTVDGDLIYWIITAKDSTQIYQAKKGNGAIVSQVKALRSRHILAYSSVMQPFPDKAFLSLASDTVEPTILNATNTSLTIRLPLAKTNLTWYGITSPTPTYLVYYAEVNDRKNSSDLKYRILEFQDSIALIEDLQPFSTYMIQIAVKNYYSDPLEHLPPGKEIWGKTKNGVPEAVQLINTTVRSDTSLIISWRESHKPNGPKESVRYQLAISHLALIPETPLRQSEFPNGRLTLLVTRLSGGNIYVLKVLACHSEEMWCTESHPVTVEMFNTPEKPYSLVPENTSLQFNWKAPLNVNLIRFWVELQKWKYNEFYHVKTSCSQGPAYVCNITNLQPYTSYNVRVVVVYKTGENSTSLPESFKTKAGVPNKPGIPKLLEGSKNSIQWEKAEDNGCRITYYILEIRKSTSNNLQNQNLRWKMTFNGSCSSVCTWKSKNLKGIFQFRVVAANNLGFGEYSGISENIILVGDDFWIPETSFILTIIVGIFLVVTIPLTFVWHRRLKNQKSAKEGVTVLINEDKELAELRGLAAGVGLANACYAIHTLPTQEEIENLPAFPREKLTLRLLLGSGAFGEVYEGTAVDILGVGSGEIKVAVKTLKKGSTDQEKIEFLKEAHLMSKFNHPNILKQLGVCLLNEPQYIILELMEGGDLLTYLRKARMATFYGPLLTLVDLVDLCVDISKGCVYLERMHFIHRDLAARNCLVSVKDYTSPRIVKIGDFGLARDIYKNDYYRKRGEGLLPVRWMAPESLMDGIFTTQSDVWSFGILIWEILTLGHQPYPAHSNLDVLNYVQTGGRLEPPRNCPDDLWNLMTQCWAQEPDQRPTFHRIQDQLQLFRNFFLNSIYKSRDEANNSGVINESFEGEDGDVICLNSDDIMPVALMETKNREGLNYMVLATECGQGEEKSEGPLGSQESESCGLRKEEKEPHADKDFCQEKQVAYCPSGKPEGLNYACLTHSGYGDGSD
T6 sequence (Q9BYT3 whole entry): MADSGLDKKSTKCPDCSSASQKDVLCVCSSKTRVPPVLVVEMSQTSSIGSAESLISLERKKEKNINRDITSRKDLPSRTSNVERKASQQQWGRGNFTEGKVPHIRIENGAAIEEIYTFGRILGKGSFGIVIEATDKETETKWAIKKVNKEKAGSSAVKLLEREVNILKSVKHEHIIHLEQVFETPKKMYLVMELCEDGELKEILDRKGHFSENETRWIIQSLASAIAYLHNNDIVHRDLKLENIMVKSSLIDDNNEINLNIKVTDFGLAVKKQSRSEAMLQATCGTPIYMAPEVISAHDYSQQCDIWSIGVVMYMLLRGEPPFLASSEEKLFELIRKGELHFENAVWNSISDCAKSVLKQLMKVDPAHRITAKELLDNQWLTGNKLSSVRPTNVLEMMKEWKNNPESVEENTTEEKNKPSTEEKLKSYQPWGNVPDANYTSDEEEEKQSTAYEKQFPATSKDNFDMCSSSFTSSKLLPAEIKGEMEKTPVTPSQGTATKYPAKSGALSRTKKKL
T1 sequence (P53671 whole entry): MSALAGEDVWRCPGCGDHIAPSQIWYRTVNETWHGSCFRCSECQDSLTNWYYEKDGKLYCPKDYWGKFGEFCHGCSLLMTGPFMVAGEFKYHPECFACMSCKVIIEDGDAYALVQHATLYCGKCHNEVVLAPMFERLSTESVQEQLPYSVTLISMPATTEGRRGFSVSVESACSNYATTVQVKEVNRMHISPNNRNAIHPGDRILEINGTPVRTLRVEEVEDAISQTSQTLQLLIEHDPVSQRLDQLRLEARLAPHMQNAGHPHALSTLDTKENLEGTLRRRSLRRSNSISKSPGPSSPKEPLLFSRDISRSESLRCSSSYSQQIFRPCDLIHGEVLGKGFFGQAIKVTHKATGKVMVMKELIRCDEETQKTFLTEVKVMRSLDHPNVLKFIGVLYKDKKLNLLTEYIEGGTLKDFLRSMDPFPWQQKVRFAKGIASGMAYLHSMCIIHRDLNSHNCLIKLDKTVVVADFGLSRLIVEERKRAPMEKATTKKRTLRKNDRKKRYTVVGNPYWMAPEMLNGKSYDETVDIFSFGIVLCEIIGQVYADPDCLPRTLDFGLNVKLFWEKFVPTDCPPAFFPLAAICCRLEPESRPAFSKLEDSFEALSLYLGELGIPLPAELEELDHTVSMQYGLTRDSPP
T2 sequence (O43293 whole entry): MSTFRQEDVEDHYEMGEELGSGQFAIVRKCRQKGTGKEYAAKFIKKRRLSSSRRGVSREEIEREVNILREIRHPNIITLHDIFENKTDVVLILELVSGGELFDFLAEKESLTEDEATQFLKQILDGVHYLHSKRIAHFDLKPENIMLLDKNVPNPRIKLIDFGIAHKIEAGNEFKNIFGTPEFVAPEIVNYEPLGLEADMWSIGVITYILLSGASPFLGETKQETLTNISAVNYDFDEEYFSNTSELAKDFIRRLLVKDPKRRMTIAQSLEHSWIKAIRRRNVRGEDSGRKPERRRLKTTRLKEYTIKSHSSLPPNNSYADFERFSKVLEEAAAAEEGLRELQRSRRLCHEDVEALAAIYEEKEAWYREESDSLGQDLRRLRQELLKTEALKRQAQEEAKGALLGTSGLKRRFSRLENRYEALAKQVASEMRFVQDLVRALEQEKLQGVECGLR
T4 sequence (Q8NI60 163-647): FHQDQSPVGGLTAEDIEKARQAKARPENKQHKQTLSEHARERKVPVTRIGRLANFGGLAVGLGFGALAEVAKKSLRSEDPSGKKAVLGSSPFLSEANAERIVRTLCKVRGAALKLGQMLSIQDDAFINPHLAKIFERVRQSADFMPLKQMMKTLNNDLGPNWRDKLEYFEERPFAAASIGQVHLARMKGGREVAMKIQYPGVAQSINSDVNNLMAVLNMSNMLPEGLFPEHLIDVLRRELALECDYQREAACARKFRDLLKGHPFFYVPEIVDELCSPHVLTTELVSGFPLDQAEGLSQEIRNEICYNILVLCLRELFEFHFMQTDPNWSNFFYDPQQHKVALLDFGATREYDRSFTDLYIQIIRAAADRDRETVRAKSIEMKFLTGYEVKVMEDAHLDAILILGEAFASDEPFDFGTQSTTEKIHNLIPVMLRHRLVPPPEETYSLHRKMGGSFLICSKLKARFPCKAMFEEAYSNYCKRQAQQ

Compound	inhibition at 10 µM (panel of 203 kinases [1]) [%]	inhibition at 10 µM (panel of 203 kinases [2]) [%]	inhibition at 10 µM (panel of 203 kinases [3]) [%]	inhibition at 10 µM (panel of 203 kinases [4]) [%]	inhibition at 10 µM (TYRO3) [%]	inhibition at 10 µM (STK33) [%]	inhibition at 10 µM (ROS1) [%]	inhibition at 10 µM (PKMYT1) [%]	CC50 at 48 h [5] [µM]
C[C@@H](Oc1cc(-c2cnc3ccccn23)sc1C(N)=O)c1ccccc1Cl [Compound 8]	0	89.3	0	0	0	0	0	81.5	
Cc1ccc(O)cc1N(C)c1ccnc(Nc2cccc(S(N)(=O)=O)c2)n1 [Compound 4]	96	0	93	91.1	100	85.7	90	100	
COc1cc(Nc2nccc(-c3sc(N)nc3-c3cccc(NC(=O)c4c(F)cccc4F)c3)n2)cc(OC)c1OC [Compound 7]	100	0	0	100	100	0	80.6	0	2.6
CN1CCN(c2ccc(Nc3nccc(-c4cnn5ncccc45)n3)cc2C#N)CC1 [Compound 1]	100	98.5	0	93.7	70.2	98.1	91.9	0	> 100
Fc1cccc(COc2ccc(Nc3ncnc4c3CN(CCN3CCOCC3)CC4)cc2Cl)c1 [Compound 6]	0	0	0	0	0	0	0	0	46.7
Cc1ccc(O)cc1Nc1ccnc(Nc2cccc(C(N)=O)c2)n1 [Compound 3]	96.6	0	0	0	100	89.1	0	97.9	33.1
Clc1ccc(Nc2ncc(-c3ccccc3)s2)cc1 [Compound 10]	0	0	0	0	0	0	0	0	
COc1ccc(Nc2nccc(-c3cnn4ncccc34)n2)cc1 [Compound 2]	88	0	88.4	99.5	0	68.9	90.3	0	> 100
c1ccc(COc2cccc(-c3ccnc4[nH]ccc34)c2)cc1 [Compound 9]	0	0	0	0	0	0	0	0	
Nc1ncc2c(-c3ccncc3)c[nH]c2n1 [Compound 11]	0	0	0	0	0	0	0	0	50.1
